Test results reported in US10815183B2, “Substituted aromatic compounds and pharmaceutical uses thereof” (PROMETIC PHARMA SMT LIMITED, priority 2009, dated 2020).

Columns and labels:
bone marrow cells = assay: Chemoprotection studies: bone marrow and blood cell counts in cyclophosphamide immunosuppressed mice (hematopoiesis/erythropoiesis); type: in vivo, C57BL/6 mice; details: for In Vivo Results: effect on hematopoiesis/erythropoiesis: degree of activity compared to the activity of compound I; for Red Blood Cells (10^9) / Red Bone Marrow Cells (10^6): mice, cyclophosphamide 200 mg/kg iv day 0, compound oral pre-treatment day -3, -2, -1, sacrifice day +5
Protocol: Female C57BL/6 mice, 6 to 8 week old, were immunosuppressed by treatment with 200 mg/kg of cyclophosphamide administered intravenously at day 0. To examine the immunoprotective effect of compound I, mice were pre-treated orally at day −3, −2 and −1 with the compound. Mice were sacrificed at day +5 by cardiac puncture and cervical dislocation. Then, a gross pathological observation of the femurs (as a source of bone marrow cells) was recorded. After the sacrifice, tissues were crushed in PBS buffer and cells were counted on a hemacytometer.
Additional compounds related to compound I were also prepared and tested for biological activity.

[1] = Doxorubicin-induced nephrotoxicity model: serum albumin, serum creatinine, histological kidney lesions; type: in vivo, C57Bl/6 mice; details: for serum creatinine increase induced by doxorubicin: mice (FIG. 9)
Protocol: (§1) C57Bl/6 mice (6-10 week-old) were treated with Compound I prophylacticly from day −3 to day 10 or treated therapeutically from day 1 to 10. Nephrotoxicity was induced by an intravenous injection of 10 mg/kg of doxorubicin at day 0. Serum albumin and creatinine were monitored at days 4, 7, 9 and 11.
Doxorubicin is well known to induce nephro- and cardiotoxicity. FIG. 10 represents the histological kidney lesions score as determined by histochemistry in the doxorubicin-induced nephrotoxicity model.
Doxorubicin induces early lesions primarily at the tubular region. Toxicity is further extended to the glomerulus (around day 11 post-doxorubicin). FIG. 11 represents the histological micrographs of doxorubicin-induced lesions in control and Compound I-treated (prophylactic treatment) mice. Doxorubicin induces kidney cell apoptosis, fibrosis, sclerosis and accumulation of proteins in affected tubular regions.

TGF-β = TGF-β mRNA expression in kidneys from doxorubicin-treated mice; type: in vivo, C57Bl/6 mice
Protocol: as §1
CTGF is also regulated by TGF-β. FIG. 13 illustrates the mRNA expression of TGF-β in kidneys. Doxorubicin increases by 73% the mRNA expression of TGF-β in kidneys. Pre-treatment with Compound I induces a 26% decrease of TGF-β expression.

PGE2 = assay: LPS-induced inflammation in the rat air-pouch model, PGE2 in pouch exudates by ELISA; type: in vivo, Lewis rats
Text: LPS-induced inflammation in the rat air-pouch model is believed to mimic the pathological process occurring in joint diseases such as arthritis. This is because the connective tissues formed along the air pouch are similar to those found in chronic joint diseases. LPS-induced inflammation and chronic joint diseases share other features, including markedly elevated PGE2, neutrophil infiltration, cytokine formation, and tissue damage.
An air cavity was produced at day −6 by subcutaneous injection of 20 ml of sterile air into the […] area of the back of male Lewis rats (175-200 g). An additional 10 ml of air was injected into the cavity at day −3 to keep the space open. At day 0, compounds were administered intravenously and one hour later lipopolysaccharide (LPS: 2.5 ml, 2 μg/ml in PBS) was injected into the pouch to produce an inflammatory reaction. Two hours after treatment with LPS, animals were euthanized by CO2 asphyxiation and 5 ml of PBS/heparin (10 U/ml)/indomethacin (36 μg/ml) was injected into the pouch. The pouch fluid was collected and PGE2 was determined in the pouch exudates by ELISA.

[2] = Kidney protection in 5/6 nephrectomized (Nx) rat model, GFR (creatinine clearance); type: in vivo, Wistar rats
Text: (§2) Male 6 week-old Wistar rats were subjected to ⅚ nephrectomy or sham operations. Under fluothane anesthesia, renal ablation was achieved by removing two-thirds of the left kidney followed by a right unilateral nephrectomy 7 days later. Sham rats underwent exposition of the kidneys and removal of the perirenal fat. Twenty-one days after the first operation, rats were randomized in the study by their reduced glomerular filtration rate (GFR) of creatinine indicating a dysfunction of the kidney. Animals that underwent the sham operation were given vehicle (saline) and were used as controls. Nx animals were divided in groups receiving the vehicle or Compound I. Saline or Compound I was given by gastric gavage once daily up to the sacrifice. GFR was measured every three weeks in order to assess the severity of this end-stage renal disease model. Rats were sacrificed at day 190.

[3] = Heart protection in 5/6 nephrectomized rats, blood pressure; type: in vivo; details: Nx rats (FIG. 7)
Text: as §2

CTGF = type: in vivo, C57Bl/6 mice; details: pre-treatment, doxorubicin-treated mice (FIG. 12)
Protocol: as §1

CCCCCc1cccc(C(C)C(=O)[O-])c1.[Na+] (stereo not drawn) [Compound VIII, Sodium Salt of 2-(3-pentylphenyl)propionic Acid]
In Vivo Results: effect on hematopoiesis/erythropoiesis (bone marrow cells): ++ (++ designates 40-70% of compound I activity)

O=P1(N(CCCl)CCCl)NCCCO1 (stereo not drawn) [Cyclophosphamide, reference compound]
Red Blood Cells (10^9) (bone marrow cells): 5.7 10^9
Red Bone Marrow Cells (10^6) (bone marrow cells): 8.1 10^6

CCCCCc1cccc(CCC(=O)[O-])c1.[Na+] [Compound V, Sodium Salt of 3-(3-pentylphenyl)propionic Acid]
In Vivo Results: effect on hematopoiesis/erythropoiesis (bone marrow cells): ++ (++ designates 40-70% of compound I activity)

CCCCCc1cc(O)cc(CC(=O)[O-])c1.[Na+] [Compound XI, Sodium Salt of [3-Hydroxy-5-pentylphenyl]acetic acid]
In Vivo Results: effect on hematopoiesis/erythropoiesis (bone marrow cells): ++++ (++++ designates greater activity than compound I)

CCCCCc1ccc(O)c(CC(=O)[O-])c1.[Na+] [Compound III, Sodium salt of (2-hydroxy-5-pentylphenyl)acetic Acid]
In Vivo Results: effect on hematopoiesis/erythropoiesis (bone marrow cells): + (+ designates 5-40% of compound I activity)

CCCCCCc1cccc(C(=O)[O-])c1.[Na+] [Compound XIII, Sodium Salt of 3-Hexylbenzoic Acid]
In Vivo Results: effect on hematopoiesis/erythropoiesis (bone marrow cells): +++ (+++ designates 70 to 100% of compound I activity)

CCCCCc1cccc(C(CO)C(=O)[O-])c1.[Na+] (stereo not drawn) [Compound VII, Sodium Salt of 3-Hydroxy-2-(3-pentyl-phenyl)propionic Acid]
In Vivo Results: effect on hematopoiesis/erythropoiesis (bone marrow cells): +++ (+++ designates 70 to 100% of compound I activity)

CCCCCc1ccc(C(=O)[O-])cc1.[Na+] [Compound XII, Sodium Salt of 4-Pentylbenzoic Acid]
In Vivo Results: effect on hematopoiesis/erythropoiesis (bone marrow cells): ++ (++ designates 40-70% of compound I activity)

CCC/C=C/c1cccc(CC(=O)[O-])c1.[Na+] [Compound II, Sodium Salt of E-(3-pent-1-enyl-phenyl)acetic Acid]
In Vivo Results: effect on hematopoiesis/erythropoiesis (bone marrow cells): +++ (+++ designates 70 to 100% of compound I activity)

CCCCCc1cc(CCC(=O)[O-])ccc1F.[Na+] [Compound IV, Sodium Salt of 3-(4-fluoro-3-pentylphenyl)propionic Acid]
In Vivo Results: effect on hematopoiesis/erythropoiesis (bone marrow cells): +++ (+++ designates 70 to 100% of compound I activity)

COc1cccc2c1C(=O)c1c(O)c3c(c(O)c1C2=O)C[C@@](O)(C(=O)CO)C[C@@H]3O[C@H]1C[C@H](N)[C@H](O)[C@H](C)O1 [Doxorubicin, reference compound]
histological kidney lesions induced ([1]; doxorubicin 10 mg/kg iv day 0, mice, day 7 and 11): significant kidney lesions
increase of mRNA expression of TGF-β in kidneys (TGF-β; doxorubicin 10 mg/kg iv, mice): 73%

CCCCc1cccc(CCC(=O)[O-])c1.[Na+] [Compound IX, Sodium Salt of 3-(3-butylphenyl)propionic Acid]
In Vivo Results: effect on hematopoiesis/erythropoiesis (bone marrow cells): ++ (++ designates 40-70% of compound I activity)

CCCCc1ccc2c(c1)CC(C(=O)[O-])C2.[Na+] (stereo not drawn) [Compound XIV, Sodium Salt of 5-Butylindan-2-carboxylc Acid]
In Vivo Results: effect on hematopoiesis/erythropoiesis (bone marrow cells): ++ (++ designates 40-70% of compound I activity)

C/C=C\CCc1cccc(CC(=O)[O-])c1.[Na+] [Compound X, Sodium Salt of E/Z-(3-Pent-3-enylphenyl)acetic Acid]
In Vivo Results: effect on hematopoiesis/erythropoiesis (bone marrow cells): +++ (+++ designates 70 to 100% of compound I activity)

CCCCCc1cccc(CC(=O)[O-])c1.[Na+] [Compound I, Sodium Salt of 3-Pentylphenylacetic Acid]
circulating red blood cells (in words) (bone marrow cells; cyclophosphamide immunosuppressed mice): increases
In Vivo Results: effect on hematopoiesis/erythropoiesis (bone marrow cells): +++ (+++ designates 70 to 100% of compound I activity)
Red Blood Cells (10^9) (bone marrow cells): 7.0 10^9
Red Bone Marrow Cells (10^6) (bone marrow cells): 11.5 10^6
red bone marrow cell count (in words) (bone marrow cells; oral pre-treatment, cyclophosphamide immunosuppressed mice): increase
white bone marrow cell count (bone marrow cells; oral pre-treatment, cyclophosphamide immunosuppressed mice (FIG. 2)): increase
total bone marrow cell count (bone marrow cells; oral pre-treatment, cyclophosphamide treated mice (FIG. 1)): significant increase
inhibition of PGE2 compared with positive control indomethacin (PGE2; two hours after LPS): similar
inhibition of PGE2 (PGE2; two hours after administration of LPS (FIG. 3)): significant inhibition
improvement of GFR compared to initial GFR (before treatment) at day 21 ([2]; Nx rats over treatment period, Nx control 50% deterioration (FIG. 6)): 50%
improvement of GFR (creatinine clearance) ([2]; Nx rats, gastric gavage once daily, day 190 (FIG. 5)): two-fold
blood pressure [3]: significant decrease
histological kidney lesions at the tubular level induced by doxorubicin ([1]; prophylactic (pre-doxorubicin) and therapeutic (post-doxorubicin) treatments (FIG. 10)): reduce the kidney lesions
protection of the kidney against doxorubicin toxicity (histological micrographs) ([1]; prophylactic or therapeutic treatment (FIG. 11)): protects the kidney
serum albumin decrease induced by doxorubicin ([1]; prophylactic treatment day -3 to day 10, oral, mice (FIG. 8)): inhibits the decrease
serum creatinine increase induced by doxorubicin ([1]; prophylactic treatment day -3 to day 10, oral): inhibits the increase
serum albumin level induced by doxorubicin ([1]; therapeutic treatment day 1 to 10, oral, mice (FIG. 8)): no effect
serum creatinine increase induced by doxorubicin ([1]; therapeutic treatment day 1 to 10, oral): inhibits the increase
CTGF expression in kidneys (CTGF): significant decrease
decrease of TGF-β expression in kidneys (TGF-β; pre-treatment, doxorubicin-treated mice (FIG. 13)): 26%

CCCCCc1cccc(C(C)(C)C(=O)[O-])c1.[Na+] [Compound VI, Sodium Salt of 2-Methyl-2-(3-pentylphenyl)propionic Acid]
In Vivo Results: effect on hematopoiesis/erythropoiesis (bone marrow cells): ++ (++ designates 40-70% of compound I activity)

CCCC/C=C/c1cccc(CC(=O)[O-])c1.[Na+] [XV]
In Vivo Results: effect on hematopoiesis/erythropoiesis (bone marrow cells): ++ (++ designates 40-70% of compound I activity)

CCCCCc1cccc(CC(=O)[O-])n1.[Na+] [XVI]
In Vivo Results: effect on hematopoiesis/erythropoiesis (bone marrow cells): ++ (++ designates 40-70% of compound I activity)
